In US8779129B2, “Triazinedione derivatives as GABAB receptor modulators” (Addex Pharma S.A., priority 2006, dated 2014):

Row | melting point [°C] | Compound
1 | 183 | CC(=O)Nc1cccc(-n2nc(C(=O)OC(C)C)c(=O)n(Cc3ccc(Cl)cc3)c2=O)c1 [5.18, Isopropyl 2-(3-acetamidophenyl)-4-(4-chlorobenzyl)-3,5-dioxo-2,3,4,5-tetrahydro-1,2,4-triazine-6-carboxylate]
2 | 157 | COc1nn(-c2cccc(N(C)C(C)=O)c2)c(=O)n(Cc2ccc(Cl)cc2)c1=O [4.133, N-(3-(4-(4-chlorobenzyl)-6-methoxy-3,5-dioxo-4,5-dihydro-1,2,4-triazin-2(3H)-yl)phenyl)-N-methylacetamide]
3 | 184 | CC(=O)Nc1cccc(-n2ncc(=O)n(Cc3ccc(Cl)cc3F)c2=O)c1 [2.20, N-(3-(4-(4-chloro-2-fluorobenzyl)-3,5-dioxo-4,5-dihydro-1,2,4-triazin-2(3H)-yl)phenyl)acetamide]
4 | 189 to 190 | CC(=O)Nc1cccc(-n2nc(N(C)C)c(=O)n(Cc3ccc(Cl)cc3)c2=O)c1 [5.13, N-(3-(4-(4-chlorobenzyl)-6-(dimethylamino)-3,5-dioxo-4,5-dihydro-1,2,4-triazin-2(3H)-yl)phenyl)acetamide]
5 | 171 to 172 | CC(=O)Nc1cccc(-n2ncc(=O)n(Cc3ccc(Cl)cc3)c2=O)c1 [2.01, N-(3-(4-(4-chlorobenzyl)-3,5-dioxo-4,5-dihydro-1,2,4-triazin-2(3H)-yl)phenyl)acetamide]
6 | 97 | COCc1nn(-c2cccc(NC(C)=O)c2)c(=O)n(Cc2ccc(Cl)cc2)c1=O [5.16, N-(3-(4-(4-chlorobenzyl)-6-(methoxymethyl)-3,5-dioxo-4,5-dihydro-1,2,4-triazin-2(3H)-yl)phenyl)acetamide]
7 | 196 | CC(=O)Nc1cccc(-n2nc(C#N)c(=O)n(Cc3ccc(Cl)cc3)c2=O)c1 [1.01, N-(3-(4-(4-chlorobenzyl)-6-cyano-3,5-dioxo-4,5-dihydro-1,2,4-triazin-2(3H)-yl)phenyl)acetamide]
8 | 184 | COc1nn(-c2cccc(NC(C)=O)c2)c(=O)n(Cc2ccc3c(c2)OC(F)(F)O3)c1=O [4.127, N-(3-(4-((2,2-difluorobenzo[d][1,3]dioxol-5-yl)methyl)-6-methoxy-3,5-dioxo-4,5-dihydro-1,2,4-triazin-2(3H)-yl)phenyl)acetamide]
9 | 168 | CC(=O)Nc1cccc(-n2nc(C)c(=O)n(Cc3ccc(Cl)cc3)c2=O)c1 [3.01, N-(3-(4-(4-chlorobenzyl)-6-methyl-3,5-dioxo-4,5-dihydro-1,2,4-triazin-2(3H)-yl)phenyl)acetamide]
10 | 176 to 178 | COc1nn(-c2cccc(Nc3nccs3)c2)c(=O)n(Cc2ccc(Cl)cc2)c1=O [4.144, 4-(4-chlorobenzyl)-6-methoxy-2-(3-(thiazol-2-ylamino)phenyl)-1,2,4-triazine-3,5(2H,4H)-dione]
11 | 143 | COCC(=O)Nc1cccc(-n2nc(OC)c(=O)n(Cc3ccc(Cl)cc3)c2=O)c1 [4.141, N-(3-(4-(4-chlorobenzyl)-6-methoxy-3,5-dioxo-4,5-dihydro-1,2,4-triazin-2(3H)-yl)phenyl)-2-methoxyacetamide]
12 | 91 to 93 | COc1nn(-c2cccc(N3CCCC3=O)c2)c(=O)n(Cc2ccc(Cl)cc2)c1=O [4.145, 4-(4-chlorobenzyl)-6-methoxy-2-(3-(2-oxopyrrolidin-1-yl)phenyl)-1,2,4-triazine-3,5(2H,4H)-dione]
13 | 190 to 191 | COc1nn(-c2cccc(NC(C)=O)c2)c(=O)n(Cc2ccc(Cl)cc2)c1=O [4.01, N-(3-(4-(4-chlorobenzyl)-6-methoxy-3,5-dioxo-4,5-dihydro-1,2,4-triazin-2(3H)-yl)phenyl)acetamide]
14 | 178 | CC(=O)Nc1cccc(-n2nc(C(C)C)c(=O)n(Cc3ccc(Cl)cc3)c2=O)c1 [5.01, N-(3-(4-(4-chlorobenzyl)-6-isopropyl-3,5-dioxo-4,5-dihydro-1,2,4-triazin-2(3H)-yl)phenyl)acetamide]
15 | 184 to 185 | CC(=O)Nc1cccc(-n2ncc(=O)n(Cc3ccc(C#N)cc3)c2=O)c1 [2.05, N-(3-(4-(4-cyanobenzyl)-3,5-dioxo-4,5-dihydro-1,2,4-triazin-2(3H)-yl)phenyl)acetamide]
16 | 143 | CC(=O)Nc1cccc(-n2nc(CN(C)C)c(=O)n(Cc3ccc(Cl)cc3)c2=O)c1.Cl
17 | 163 to 165 | COc1nn(-c2cccc(-c3noc(C)n3)c2)c(=O)n(Cc2ccc(Cl)cc2)c1=O [4.146, 4-(4-chlorobenzyl)-6-methoxy-2-(3-(5-methyl-1,2,4-oxadiazol-3-yl)phenyl)-1,2,4-triazine-3,5(2H,4H)-dione]
18 | 193 | COC(=O)c1nn(-c2cccc(NC(C)=O)c2)c(=O)n(Cc2ccc(Cl)cc2)c1=O [5.17, Methyl 4-(4-chlorobenzyl)-2-(3-acetamidophenyl)-3,5-dioxo-2,3,4,5-tetrahydro-1,2,4-triazine-6-carboxylate]
19 | 164 to 165 | COc1nn(-c2ccccc2O)c(=O)n(Cc2ccc(Cl)cc2)c1=O [4.143, 4-(4-chlorobenzyl)-2-(2-hydroxyphenyl)-6-methoxy-1,2,4-triazine-3,5(2H,4H)-dione]
